This note sets out measurements from PMC6977516, “An assessment of the interaction for three Chrysanthemum indicum flavonoids and α‐amylase by surface plasmon resonance” (Food Science & Nutrition, 2019).

Test [1] addresses T1, α-amylase (Bacillus subtilis, UniProt P00691).
T1 construct: purchased Shanghai Ryon Biological Technology Co. Ltd
The test is described as follows: Inhibition kinetics of α-amylase by Lineweaver-Burk plots. The note with it: for Inhibitory type: Lineweaver-Burk plots, starch 0.25-1.25 mg/ml. Type of test: biochemical. As for the experimental part:
To further explore the inhibitory type of three flavonoids on α‐amylase, kinetic analysis was carried out by using Lineweaver–Burk plots. Starch was used as substrate, and the inhibition kinetics of α‐amylase was evaluated by varying four different concentrations (0.25, 0.50, 1.00, and 1.25 mg/ml) of starch in the absence or presence of three flavonoids. The Lineweaver–Burk plots of the three flavonoids can be obtained from the double‐reciprocal plots between 1/[S] (starch concentration) and 1/[V] (reaction rate). Besides, different concentrations of flavonoids (0, 5, and 10 μM) were used and the three Lineweaver––Burk plots for each flavonoid can be obtained. The Ki (inhibition constant) value was obtained from the least‐squares regression line of the slopes of Lineweaver–Burk plots versus the corresponding flavonoid concentrations [I] (Kandra, Gyémánt, Zajácz, & Batta, 2004; Yang et al., 2014). The formula is(3) slope=Km/Vmax1+[I]/Ki Ki = intercept of Equation (3) on x axis (Yang et al., 2014)

The target of test [2] is T1, α-amylase. The test is described as follows: SPR binding assay of flavonoids to immobilized α-amylase. The note with it: for kon: pH 6, read-out: Ka (association rate constant); for koff: pH 6, read-out: Kd (dissociation rate constant) × 10^–3. As for the experimental part: A commercial BI‐2000 SPR instrument (Biosensing Instrument Inc.) was used for all SPR experiments in this study. The bare Au sensor chip was obtained from Biosensing Instrument Inc. The preparation of Au sensor chip can be referred to our previous published paper (Liu et al., 2014). A flow delivery system incorporated in the BI‐SPR platform pumped samples onto the SPR sensor chip at a flow rate of 10 μl/min. The 0.01 M PBS (pH = 6.0) buffer was used as the running buffer. The BI‐SPR 2000 control software (version 2.2.0.) was used to perform instrument operation and data processing. The Varioskan Flash (Multiskan GO 1510, Thermo Fisher Scientific) was used for the α‐amylase inhibitory activity and DPPH radical assays.
Binding assay of three flavonoids to α‐amylase was carried out using the SPR sensor. The immobilization of α‐amylase on the chip surface was performed using a standard amine coupling procedure as described previously (Liu, Luo, Li, She, & Gao, 2017). […] After the stable baseline was obtained, different concentrations of flavonoids (50–800 μM) were injected over the chip surface coated with α‐amylase, respectively. The SPR angle was monitored until the baseline stabilization. To enable reuse of the SPR chip, the chip surface could be regenerated using 2 mM NaOH after each measurement. Regeneration parameters were based on the strength of interaction between the analyte and α‐amylase. The chip surface was rinsed by PBS between each step. All the experiments were repeated three times, and kinetic parameters (ka, kd) were deduced by nonlinear fitting of the primary sensorgram data based on the 1:1 Langmuir‐binding model using the BI‐SPR 2000 control software (version 2.2.0.). The model has been widely used in protein–ligand binding analysis and can be calculated through the following formula (Gombau et al., 2019; Islam, Shen, Gurgel, Rojas, & Carbonell, 2014; Lee, Jeong, Jones, & Kim, 2011):(1) dR/dt=kaCRmax-R-kdR where R is the SPR signal at time t, and C is the concentration of the analyte. R max is the maximum analyte binding capacity in SPR signal. ka is the association rate constant and kd is the dissociation rate constant.
In general terms: Surface plasmon resonance follows binding to a sensor surface in real time, without labels.

Test [3] in a line: DPPH radical assay without or with α-amylase. The note with it: mean ± RSD (n = 3); for Inhibition (%) of antioxidant activity by binding to α-amylase: (add α-amylase IC50 − not add α-amylase IC50)/not add α-amylase IC50.
Procedure: The DPPH assay was performed to assess effect of α‐amylase on antioxidant activity of three flavonoids as following procedure (Kim et al., 2014). 2 mM DPPH solution was prepared by dissolving 0.0787 g of DPPH in 100 ml of anhydrous ethanol and stored at −20°C. α‐Amylase (300 μM) and three flavonoids (2.5–125 μM) were prepared with PBS (pH = 6.0) and ethanol, respectively. Samples were prepared by mixing flavonoids solution (without or with 10 μl α‐amylase), 100 μl of DPPH, and anhydrous ethanol. Then, samples were incubated for 10 min at room temperature. Absorbance at 517 nm was measured in the spectrophotometer. DPPH radical scavenging activity was calculated as follows (Liu et al., 2017):(4) DPPHradicalscavengingactivity(%)=1-Ai-Aj/Ac×100% in which AC is the absorbance of the DPPH (100 μl DPPH and 100 μl ethanol), Ai is the absorbance of the DPPH and sample (100 μl DPPH, 50 μl flavonoids, and 50 μl ethanol, or 100 μl DPPH, 50 μl flavonoids, 10 μl α‐amylase, and 40 μl ethano1), and Aj is the absorbance of the blank sample (50 μl flavonoids and 150 μl ethanol). All experiments were carried out in triplicate, and the results were expressed as mean ± RSD. IC50 values were obtained based on plotting the percentage of DPPH radical scavenging activity against the flavonoids concentration.
Test [4] concerns the target T1, α-amylase. As to the kind of experiment: SPR: effect of pH and salt on the interaction between flavonoids and α-amylase. Type of test: binding. Conditions: flavonoid 200 μM; for optimal CaCl2 concentration for binding with α-amylase: CaCl2 0.04-0.2 M; for optimal MgCl2 concentration for binding with α-amylase: MgCl2 0.02-0.25 M. As for the experimental part:
The effect of pH on the interaction between three flavonoids and α‐amylase was carried out within the pH range (3–9) based on the method described in the above experiment. As is known to all, metal ions play a crucial role in maintaining normal physiological function of the α‐amylase. Moreover, salt is also widely used in food industry. To evaluate whether KCl, MgCl2, and CaCl2 can interfere with the interaction between flavonoids and α‐amylase, a series of 200 μM flavonoids with a various concentrations of KCl (0.02–0.3 M), MgCl2 (0.02–0.25 M), or CaCl2 (0.04–0.2 M) solutions were flowed over the chip surface modified with α‐amylase, respectively.

The mark [5] stands for this setting: with 10 μl α-amylase (300 μM), read-out: Add α-amylase IC50 (DPPH radical scavenging).
[6] abbreviates: without α-amylase, read-out: Not add α-amylase IC50 (DPPH radical scavenging).

Molecules are shown by their SMILES. Like-named read-outs stand apart in the source and are kept apart here. Marks after values point to notes of the source that are not given here.

T1 sequence (P00691 42-659): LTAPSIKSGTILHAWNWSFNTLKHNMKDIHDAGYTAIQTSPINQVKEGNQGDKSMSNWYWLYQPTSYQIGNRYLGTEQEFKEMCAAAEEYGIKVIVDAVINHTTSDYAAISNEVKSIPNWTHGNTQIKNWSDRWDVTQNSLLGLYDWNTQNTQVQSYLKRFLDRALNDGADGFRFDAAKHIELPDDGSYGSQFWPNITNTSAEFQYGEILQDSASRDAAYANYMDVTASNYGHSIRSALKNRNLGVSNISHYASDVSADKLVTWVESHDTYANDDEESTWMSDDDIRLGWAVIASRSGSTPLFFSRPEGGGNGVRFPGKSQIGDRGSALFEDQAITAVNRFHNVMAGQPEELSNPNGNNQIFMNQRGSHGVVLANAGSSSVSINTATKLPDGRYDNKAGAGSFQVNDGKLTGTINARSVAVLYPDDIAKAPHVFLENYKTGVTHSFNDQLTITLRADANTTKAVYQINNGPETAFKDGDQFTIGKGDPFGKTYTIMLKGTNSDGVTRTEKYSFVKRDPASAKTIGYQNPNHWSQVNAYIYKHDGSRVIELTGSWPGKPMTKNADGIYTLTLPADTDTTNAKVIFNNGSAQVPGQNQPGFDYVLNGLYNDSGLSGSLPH

In the case of `COc1ccc(-c2cc(=O)c3c(O)cc(O)cc3o2)cc1` [Acacetin, acacetin], on α-amylase [1], the Ki (commonly the equilibrium dissociation constant of an inhibitor or competing ligand from its target) stood at 39.7 µM and the Inhibitory type entry is “Noncompetitive”. On α-amylase [2], the Kd (commonly the free concentration of one partner at which half of the binding sites on the other are occupied at equilibrium, for simple one-to-one binding) stood at 2.92 ± 0.2 mM; the kon was determined as 2.76 ± 6 M⁻¹ s⁻¹; the koff was determined as 0.008 ± 0.00015 s⁻¹. In addition, the half-inhibitory concentration (IC50) (commonly the concentration needed to halve the response being measured) in test [3] (setting [5]) turned out to be 77.8 µM. In addition, in test [3] (setting [6]), the IC50 came to 61.3 µM. Further, on α-amylase [4], the “optimal CaCl2 concentration for binding with α-amylase” value (“optimal CaCl2 concentration” below) is recorded as 0.100 M and the “optimal MgCl2 concentration for binding with α-amylase” value (“optimal MgCl2 concentration” for short) is given as 0.120 M.

As for `COc1ccc(-c2cc(=O)c3c(O)cc(O[C@@H]4O[C@H](CO[C@@H]5O[C@@H](C)[C@H](O)[C@@H](O)[C@H]5O)[C@@H](O)[C@H](O)[C@H]4O)cc3o2)cc1` [Buddleoside], on α-amylase [1], the Ki stood at 43.5 µM and the Inhibitory type entry is given as “Noncompetitive”. Besides, at α-amylase [2], the affinity, expressed as Kd, was 3.3 ± 0.08 mM; the kon was 2.54 ± 0.2 M⁻¹ s⁻¹; the koff is 0.0083 ± 0.00015 s⁻¹. Further, the “Inhibition (%) of antioxidant activity by binding to α-amylase” value in test [3] is 21.65 ± 0.04^a %. For the same molecule, the IC50 in test [3] (setting [5]) came to 79.13 ± 0.012 µM. In test [3] (setting [6]), the IC50 turned out to be 65.05 ± 0.02 µM. At α-amylase [4], the “optimal CaCl2 concentration” value is on record as 0.100 M and the “optimal MgCl2 concentration” value amounted to 0.120 M.

Consider `O=c1cc(-c2ccc(O)c(O)c2)oc2cc(O)cc(O)c12` [Luteolin, luteolin], for which, on α-amylase [1], the Inhibitory type entry was “Noncompetitive”. Moreover, at α-amylase [1] (slopes of Lineweaver-Burk plots vs flavonoid concentration (0, 5, 10 μM), starch substrate, read-out: Ki), the Ki was found to be 26.8 µM. The Kd on α-amylase [2] (SPR, 1:1 model, pH 6.0, mean ± RSD (n = 3), read-out: KD (equilibrium dissociation constant)) came to 1.97 ± 0.12 mM. On α-amylase [2], the kon amounted to 4.12 ± 0.1 M⁻¹ s⁻¹ and the koff was found to be 0.00808 ± 0.00011 s⁻¹. For the same molecule, the “Inhibition (%) of antioxidant activity by binding to α-amylase” value in test [3] is listed as 49.93 ± 0.037^c %. Further, the IC50 in test [3] (setting [5]) amounted to 75.2 µM. In test [3] (setting [6]), the IC50 came to 50.1 µM. Further, on α-amylase [4], the “optimal CaCl2 concentration” value worked out at 0.120 M and the “optimal MgCl2 concentration” value stood at 0.150 M.
